What follows are compounds tested on HIV (assay: MT4 assay (anti-HIV activity)). Details: 96 h.
Format: cell-based
Procedure: Antiviral HIV activity and cytotoxicity values for compounds of the invention from Table 1 were measured in parallel in the HTLV-1 transformed cell line MT-4 based on the method previously described (Hazen et al., 2007, In vitro antiviral activity of the novel, tyrosyl-based human immunodeficiency virus (HIV) type 1 protease inhibitor brecanavir (GW640385) in combination with other antiretrovirals and against a panel of protease inhibitor-resistant HIV (Hazen et al., “In vitro antiviral activity of the novel, tyrosyl-based human immunodeficiency virus (HIV) type 1 protease inhibitor brecanavir (GW640385) in combination with other antiretrovirals and against a panel of protease inhibitor-resistant HIV”, Antimicrob. Agents Chemother. 2007, 51: 3147-3154; and Pauwels et al., “Sensitive and rapid assay on MT-4 cells for the detection of antiviral compounds against the AIDS virus”, J. of Virological Methods 1987, 16: 171-185).
Luciferase activity was measured 96 hours later by adding a cell titer glo (Promega, Madison, Wis.). Percent inhibition of cell protection data was plotted relative to no compound control. Under the same condition, cytotoxicity of the compounds was determined using cell titer Glo™ (Promega, Madison, Wis). ICsos were determined from a 10 point dose response curve using 3-4-fold serial dilution for each compound, which spans a concentration range >1000 fold.
These values are plotted against the molar compound concentrations using the standard four parameter logistic equation:
y=((Vmax*x̂n)/(K̂n+x̂n))+Y2
Y2=minimum y n=slope factor
Vmax=maximum y x=compound concentration [M]

Compound	IC50
C/C(=C(/C)c1c(C)c2c(c(C)c1[C@H](OC(C)(C)C)C(=O)O)CN(C(=O)c1cccc(F)c1)C2)c1ccccc1 [Example 23, (S,E)-2-(tert-butoxy)-2-(2-(3-fluorobenzoyl)-4,7-dimethyl-6-(3-phenylbut-2-en-2-yl)isoindolin-5-yl)acetic acid]	0.044 µM

Same assay, conditions: MT4 assay, HTLV-1 transformed cell line MT-4, readout 96 hours, cell titer glo; read-out: IC50

Compound	IC50
Cc1c2c(c(C)c([C@H](OC(C)(C)C)C(=O)O)c1NC(=O)N1CCCCC1)CN(C(=O)c1cccc(F)c1)C2 [Example 11, (S)-2-(tert-butoxy)-2-(2-(3-fluorobenzoyl)-4,7-dimethyl-6-(piperidine-1-carboxamido)isoindolin-5-yl)acetic acid]	3.12 µM
Cc1ccc(CCc2c(C)c3c(c(C)c2[C@H](OC(C)(C)C)C(=O)O)CN(C(=O)c2cccc(F)c2)C3)cc1 [Example 20, (S)-2-(tert-butoxy)-2-(2-(3-fluorobenzoyl)-4,7-dimethyl-6-(4-methylphenethyl)isoindolin-5-yl)acetic acid]	50 µM
Cc1ccc(C(=O)Nc2c(C)c3c(c(C)c2[C@H](OC(C)(C)C)C(=O)O)CN(C(=O)c2cccc(F)c2)C3)cc1 [Example 8, (S)-2-(tert-butoxy)-2-(2-(3-fluorobenzoyl)-4,7-dimethyl-6-(4-methylbenzamido)isoindolin-5-yl)acetic acid]	50 µM
Cc1c(/C=C/CC(C)(C)C)c([C@H](OC(C)(C)C)C(=O)O)c(C)c2c1CN(C(=O)c1cccc(F)c1)C2 [Example 16, (S,E)-2-(tert-butoxy)-2-(6-(4,4-dimethylpent-1-en-1-yl)-2-(3-fluorobenzoyl)-4,7-dimethylisoindolin-5-yl)acetic acid]	0.12 µM
Cc1ccc(C(=O)N(C)c2c(C)c3c(c(C)c2[C@H](OC(C)(C)C)C(=O)O)CN(C(=O)c2cccc(F)c2)C3)cc1 [Example 12, (S)-2-(tert-butoxy)-2-(6-(N,4-dimethylbenzamido)-2-(3-fluorobenzoyl)-4,7-dimethylisoindolin-5-yl)acetic acid]	33.9 µM
C/C(=C\c1cc(F)c2c(c1C)CCCO2)c1c(C)c2c(c(C)c1[C@H](OC(C)(C)C)C(=O)O)CN(C(=O)c1cccc(F)c1)C2 [Example 24, (S,E)-2-(tert-butoxy)-2-(6-(1-(8-fluoro-5-methylchroman-6-yl)prop-1-en-2-yl)-2-(3-fluorobenzoyl)-4,7-dimethylisoindolin-5-yl)acetic acid]	50 µM
Cc1c(/C=C\c2ccccc2)c([C@H](OC(C)(C)C)C(=O)O)c(C)c2c1CN(C(=O)c1cccc(F)c1)C2 [Example 27, (S,Z)-2-(tert-butoxy)-2-(2-(3-fluorobenzoyl)-4,7-dimethyl-6-styrylisoindolin-5-yl)acetic acid]	0.868 µM
Cc1c(/C=C/C2CCCCC2)c([C@H](OC(C)(C)C)C(=O)O)c(C)c2c1CN(C(=O)c1cccc(F)c1)C2 [Example 14, (S,E)-2-(tert-butoxy)-2-(6-(2-cyclohexylvinyl)-2-(3-fluorobenzoyl)-4,7-dimethylisoindolin-5-yl)acetic acid]	0.086 µM
Cc1c2c(c(C)c(N(C)C(=O)CC3CCCCC3)c1[C@H](OC(C)(C)C)C(=O)O)CN(C(=O)c1cccc(F)c1)C2 [Example 13, (S)-2-(tert-butoxy)-2-(6-(2-cyclohexyl-N-methylacetamido)-2-(3-fluorobenzoyl)-4,7-dimethylisoindolin-5-yl)acetic acid]	44.6 µM
Cc1c2c(c(C)c([C@H](OC(C)(C)C)C(=O)O)c1CC(=O)NC1CCCCC1)CN(C(=O)c1cccc(F)c1)C2 [Example 5, (S)-2-(tert-butoxy)-2-(6-(2-(cyclohexylamino)-2-oxoethyl)-2-(3-fluorobenzoyl)-4,7-dimethylisoindolin-5-yl)acetic acid]	50 µM
Cc1c2c(c(C)c([C@H](OC(C)(C)C)C(=O)O)c1Cc1ccccc1)CN(C(=O)c1cccc(F)c1)C2 [Example 3, (S)-2-(6-benzyl-2-(3-fluorobenzoyl)-4,7-dimethylisoindolin-5-yl)-2-(tert-butoxy)acetic acid]	0.651 µM
Cc1c(/C=C/c2ccc3c(c2)CCCO3)c([C@H](OC(C)(C)C)C(=O)O)c(C)c2c1CN(C(=O)c1cccc(F)c1)C2 [Example 25, (S,E)-2-(tert-butoxy)-2-(6-(2-(chroman-6-yl)vinyl)-2-(3-fluorobenzoyl)-4,7-dimethylisoindolin-5-yl)acetic acid]	33.9 µM
Cc1c2c(c(C)c([C@H](OC(C)(C)C)C(=O)O)c1NC(=O)c1ccccc1)CN(C(=O)c1cccc(F)c1)C2 [Example 10, (S)-2-(6-benzamido-2-(3-fluorobenzoyl)-4,7-dimethylisoindolin-5-yl)-2-(tert-butoxy)acetic acid]	4.1 µM
Cc1c(/C=C/C2CCOCC2)c([C@H](OC(C)(C)C)C(=O)O)c(C)c2c1CN(C(=O)c1cccc(F)c1)C2 [Example 15, (S,E)-2-(tert-butoxy)-2-(2-(3-fluorobenzoyl)-4,7-dimethyl-6-(2-(tetrahydro-2H-pran-4-yl)vinyl)isoindolin-5-yl)acetic acid]	1.31 µM
Cc1c(C#Cc2ccccc2)c([C@H](OC(C)(C)C)C(=O)O)c(C)c2c1CN(C(=O)c1cccc(F)c1)C2 [Example 1, (S)-2-(tert-butoxy)-2-(2-(3-fluorobenzoyl)-4,7-dimethyl-6-(phenylethynyl)isoindolin-5-yl)acetic acid]	1.03 µM
Cc1ccc(/C=C/c2c(C)c3c(c(C)c2[C@H](OC(C)(C)C)C(=O)O)CN(C(=O)c2cccc(F)c2)C3)cc1 [Example 19, (S,E)-2-(tert-butoxy)-2-(2-(3-fluorobenzoyl)-4,7-dimethyl-6-(4-methylstyryl)isoindolin-5-yl)acetic acid]	50 µM
C/C(=C\c1c(C)c2c(c(C)c1[C@H](OC(C)(C)C)C(=O)O)CN(C(=O)c1cccc(F)c1)C2)c1ccccc1 [Example 21, (S,E)-2-(tert-butoxy)-2-(2-(3-fluorobenzoyl)-4,7-dimethyl-6-(2-phenylprop-1-en-1-yl)isoindolin-5-yl)acetic acid]	0.103 µM
Cc1c(/C=C/c2cc(F)c3c(c2C)CCCO3)c([C@H](OC(C)(C)C)C(=O)O)c(C)c2c1CN(C(=O)c1cccc(F)c1)C2 [Example 26]	50 µM
C#Cc1c(C)c2c(c(C)c1[C@H](OC(C)(C)C)C(=O)O)CN(C(=O)c1cccc(F)c1)C2 [Example 2, (S)-2-(tert-butoxy)-2-(6-ethynyl-2-(3-fluorobenzoyl)-4,7-dimethylisoindolin-5-yl)acetic acid]	3.68 µM
Cc1c2c(c(C)c([C@H](OC(C)(C)C)C(=O)O)c1CC(=O)N1CCCCC1)CN(C(=O)c1cccc(F)c1)C2 [Example 4, (S)-2-(tert-butoxy)-2-(2-(3-fluorobenzoyl)-4,7-dimethyl-6-(2-oxo-2-(piperidin-1-yl)ethyl)isoindolin-5-yl)acetic acid]	10.2 µM
Cc1c2c(c(C)c([C@H](OC(C)(C)C)C(=O)O)c1CCc1ccccc1)CN(C(=O)c1cccc(F)c1)C2 [Example 18, (S)-2-(tert-butoxy)-2-(2-(3-fluorobenzoyl)-4,7-dimethyl-6-phenethylisoindolin-5-yl)acetic acid]	1.09 µM
Cc1c2c(c(C)c([C@H](OC(C)(C)C)C(=O)O)c1CC(=O)Nc1ccccc1)CN(C(=O)c1cccc(F)c1)C2 [Example 6, (S)-2-(tert-butoxy)-2-(2-(3-fluorobenzoyl)-4,7-dimethyl-6-(2-oxo-2-(phenylamino)ethyl)isoindolin-5-yl)acetic acid]	9.63 µM
Cc1c(/C=C/c2ccccc2)c([C@H](OC(C)(C)C)C(=O)O)c(C)c2c1CN(C(=O)c1cccc(F)c1)C2 [Example 17, (S,E)-2-(tert-butoxy)-2-(2-(3-fluorobenzoyl)-4,7-dimethyl-6-styrylisoindolin-5-yl)acetic acid]	0.124 µM
Cc1c2c(c(C)c([C@H](OC(C)(C)C)C(=O)O)c1NC(=O)CC1CCCCC1)CN(C(=O)c1cccc(F)c1)C2 [Example 9, (S)-2-(tert-butoxy)-2-(6-(2-cyclohexylacetamido)-2-(3-fluorobenzoyl)-4,7-dimethylisoindolin-5-yl)acetic acid]	50 µM
C/C(=C\c1ccccc1)c1c(C)c2c(c(C)c1[C@H](OC(C)(C)C)C(=O)O)CN(C(=O)c1cccc(F)c1)C2 [Example 22, (S,E)-2-(tert-butoxy)-2-(2-(3-fluorobenzoyl)-4,7-dimethyl-6-(1-phenylprop-1-en-2-yl)isoindolin-5-yl)acetic acid]	0.039 µM
Cc1c2c(c(C)c([C@H](OC(C)(C)C)C(=O)O)c1CC(=O)NCC(C)(C)C)CN(C(=O)c1cccc(F)c1)C2 [Example 7, (S)-2-(tert-butoxy)-2-(2-(3-fluorobenzoyl)-4,7-dimethyl-6-(2-(neopentylamino)-2-oxoethyl)isoindolin-5-yl)acetic acid]	38 µM

— patent US20180327355A1, “ISOINDOLINE DERIVATIVES” (priority 2015, published 2018)
